Laboratory results taken from patent US20250034216A1, “STEREOSELECTIVE COVALENT LIGANDS FOR ONCOGENIC AND IMMUNOLOGICAL PROTEINS” (The Scripps Research Institute, priority 2021, published 2025).

How the values were obtained:
Assay in all cases: IA-DTB cysteine engagement
Assay type in all cases: binding
[1] = biological target: T1, ABCB8_C462 (Homo sapiens, UniProt Q9NUT2); conditions: 22Rv1 cells, 20 μM probe, 1 h, relative to DMSO
T1 construct: endogenous in cells; host or cells: 22Rv1
T1 sequence (Q9NUT2 26-735): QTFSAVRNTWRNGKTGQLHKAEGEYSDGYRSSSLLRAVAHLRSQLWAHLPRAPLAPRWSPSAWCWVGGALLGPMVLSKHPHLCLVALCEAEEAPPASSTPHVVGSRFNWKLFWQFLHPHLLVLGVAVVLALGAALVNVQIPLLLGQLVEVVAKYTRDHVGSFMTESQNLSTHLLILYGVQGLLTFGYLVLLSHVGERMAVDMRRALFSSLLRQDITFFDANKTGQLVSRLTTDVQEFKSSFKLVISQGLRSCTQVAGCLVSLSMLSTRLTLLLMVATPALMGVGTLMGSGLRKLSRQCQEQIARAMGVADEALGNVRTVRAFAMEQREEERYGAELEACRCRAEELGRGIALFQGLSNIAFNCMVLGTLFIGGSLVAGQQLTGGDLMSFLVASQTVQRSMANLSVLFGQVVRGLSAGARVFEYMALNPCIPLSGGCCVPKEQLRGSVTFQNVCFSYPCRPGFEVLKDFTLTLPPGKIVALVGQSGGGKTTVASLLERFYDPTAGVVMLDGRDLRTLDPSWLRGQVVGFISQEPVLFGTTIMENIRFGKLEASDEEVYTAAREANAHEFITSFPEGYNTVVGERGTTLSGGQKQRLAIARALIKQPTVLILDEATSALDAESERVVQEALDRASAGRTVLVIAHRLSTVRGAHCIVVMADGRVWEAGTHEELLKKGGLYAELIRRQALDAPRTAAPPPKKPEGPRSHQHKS
How it was run: (§1)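 Read-out is TMT-based cysteine engagement, expressed as each reporter ion intensity divided by the average of the DMSO channels. Before that, probe-treated cell lysates were capped with IA-DTB, digested, enriched on streptavidin and TMT-tagged. PSMs with DMSO summed intensity <10,000 or DMSO CV >0.5 were excluded.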

[2] = biological target: T2, STRBP_C142 (Homo sapiens, UniProt Q96SI9); conditions: 22Rv1 cells, 20 μM probe, 1 h, relative to DMSO
T2 construct: endogenous in cells; host or cells: 22Rv1
T2 sequence (Q96SI9 1-672): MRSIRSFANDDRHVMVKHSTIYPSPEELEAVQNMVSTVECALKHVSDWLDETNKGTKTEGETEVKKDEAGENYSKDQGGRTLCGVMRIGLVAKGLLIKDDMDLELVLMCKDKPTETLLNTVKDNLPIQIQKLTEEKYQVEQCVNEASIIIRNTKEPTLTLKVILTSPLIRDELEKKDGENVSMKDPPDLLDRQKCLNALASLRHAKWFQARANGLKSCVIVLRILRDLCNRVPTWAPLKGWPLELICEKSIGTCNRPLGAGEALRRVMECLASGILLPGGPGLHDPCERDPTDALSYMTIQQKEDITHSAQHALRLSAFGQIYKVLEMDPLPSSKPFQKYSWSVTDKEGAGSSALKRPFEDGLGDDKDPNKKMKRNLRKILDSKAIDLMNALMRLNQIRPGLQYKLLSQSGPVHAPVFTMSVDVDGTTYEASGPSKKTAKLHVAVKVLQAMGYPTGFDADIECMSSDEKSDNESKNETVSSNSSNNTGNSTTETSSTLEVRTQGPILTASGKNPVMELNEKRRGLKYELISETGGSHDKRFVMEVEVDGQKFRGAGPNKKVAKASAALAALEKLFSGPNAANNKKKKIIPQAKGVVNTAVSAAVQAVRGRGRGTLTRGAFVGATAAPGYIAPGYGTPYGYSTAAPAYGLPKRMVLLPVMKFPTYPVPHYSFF
How it was run: as §1

[3] = biological target: T3, LIMK1_C349 (Homo sapiens, UniProt P53667); conditions: 22Rv1 cells, relative to DMSO; for % engagement LIMK1_C349: 20 μM probe, 1 h; for % engagement LIMK1_349: 5 μM probe, 1 h (FIG. 5B)
T3 construct: endogenous in cells; host or cells: 22Rv1
T3 sequence (P53667 whole entry): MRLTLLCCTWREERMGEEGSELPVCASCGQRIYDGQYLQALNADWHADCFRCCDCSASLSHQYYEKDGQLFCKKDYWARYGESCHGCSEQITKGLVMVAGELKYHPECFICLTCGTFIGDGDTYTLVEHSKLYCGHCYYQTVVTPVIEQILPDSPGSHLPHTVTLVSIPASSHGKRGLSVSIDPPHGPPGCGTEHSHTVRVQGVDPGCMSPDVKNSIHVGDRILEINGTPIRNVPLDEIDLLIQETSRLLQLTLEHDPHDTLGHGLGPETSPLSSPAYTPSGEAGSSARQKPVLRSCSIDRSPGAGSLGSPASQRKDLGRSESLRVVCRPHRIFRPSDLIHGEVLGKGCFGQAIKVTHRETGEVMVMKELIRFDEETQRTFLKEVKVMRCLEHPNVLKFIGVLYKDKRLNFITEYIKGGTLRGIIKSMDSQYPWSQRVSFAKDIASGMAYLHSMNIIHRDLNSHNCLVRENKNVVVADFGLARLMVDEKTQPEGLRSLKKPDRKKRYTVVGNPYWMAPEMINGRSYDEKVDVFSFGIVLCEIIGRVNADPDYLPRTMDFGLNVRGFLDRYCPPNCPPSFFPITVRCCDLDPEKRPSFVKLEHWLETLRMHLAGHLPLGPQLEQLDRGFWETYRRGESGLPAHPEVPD
How it was run: as §1

[4] = biological target: T4, SRC_C280 (Homo sapiens, UniProt P12931); conditions: 22Rv1 cells, 20 μM probe, 1 h, relative to DMSO
T4 construct: endogenous in cells; host or cells: 22Rv1
T4 sequence (P12931 whole entry): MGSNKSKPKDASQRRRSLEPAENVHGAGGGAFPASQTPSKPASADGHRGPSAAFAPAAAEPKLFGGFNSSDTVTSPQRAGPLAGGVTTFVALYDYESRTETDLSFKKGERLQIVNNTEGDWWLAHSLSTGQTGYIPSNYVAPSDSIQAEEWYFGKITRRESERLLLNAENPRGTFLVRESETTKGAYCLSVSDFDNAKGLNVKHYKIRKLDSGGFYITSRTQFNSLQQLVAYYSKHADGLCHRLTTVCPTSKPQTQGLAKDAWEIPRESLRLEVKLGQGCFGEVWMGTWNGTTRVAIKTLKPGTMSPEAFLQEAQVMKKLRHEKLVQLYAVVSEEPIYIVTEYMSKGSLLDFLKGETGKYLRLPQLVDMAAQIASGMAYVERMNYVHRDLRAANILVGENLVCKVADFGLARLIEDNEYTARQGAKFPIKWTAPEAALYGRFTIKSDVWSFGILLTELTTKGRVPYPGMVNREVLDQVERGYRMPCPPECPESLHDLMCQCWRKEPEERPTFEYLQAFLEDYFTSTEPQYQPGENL
How it was run: as §1

Row | SMILES | % engagement ABCB8_C462 [1] [%] | % engagement STRBP_C142 [2] [%] | % engagement LIMK1_C349 [3] [%] | % engagement SRC_C280 [4] [%] | % engagement LIMK1_349 [3] [%]
1 | C=CC(=O)N1C[C@@H](c2ccc(Br)cc2)[C@H]1C(=O)Nc1cccc2cccnc12 [MY-1A, (2S,3R)-1-acryloyl-3-(4-bromophenyl)-N-(quinolin-8-yl)azetidine-2-carboxamide] | 28.5 | 88.25 | 45.25 | 17.75 | 
2 | C=CC(=O)N1C[C@H](c2ccc(Br)cc2)[C@@H]1C(=O)Nc1cccc2cccnc12 [MY-1B, (2R,3S)-1-acryloyl-3-(4-bromophenyl)-N-(quinolin-8-yl)azetidine-2-carboxamide] | 39 | 8.5 | 93 | 92.25 | 90.88
3 | C=CC(=O)N1C[C@H](c2ccc(Br)cc2)[C@H]1C(=O)Nc1cccc2cccnc12 [MY-3A, (2S,3S)-1-acryloyl-3-(4-bromophenyl)-N-(quinolin-8-yl)azetidine-2-carboxamide] | 19.5 | 16.25 | 21.5 | 2 | 
4 | C=CC(=O)N1C[C@H](c2ccc(Br)cc2)[C@H]1C(=O)Nc1cccc2cccnc12 [MY-3B, (2S,3S)-1-acryloyl-3-(4-bromophenyl)-N-(quinolin-8-yl)azetidine-2-carboxamide] | 73.25 | 7.75 | 43.25 | 64 | 
5 | CC#CC(=O)N1C[C@H](c2ccc(Br)cc2)[C@@H]1C(=O)Nc1cccc2cccnc12 [MY-45B, (2R,3S)-3-(4-bromophenyl)-1-(but-2-ynoyl)-N-(quinolin-8-yl)azetidine-2-carboxamide] |  |  |  |  | −15.75
